This note sets out measurements from PubChem BioAssay AID1745844 (Carcinogenic Potency Database (CPDB), 2022).

Calls of active or inactive are those of the source. How the calls were made is not given here.

This data set deals with rodent lifetime carcinogenesis bioassay, tumor incidence TD50. Kind of data set: chronic cancer bioassays in animals – CPDB, compiled studies (AID 1745844).

With `CCN(CC)C(=S)S[Se](SC(=S)N(CC)CC)(SC(=S)N(CC)CC)SC(=S)N(CC)CC`, the TD50 – broadly, the dose at which the toxic effect under study appears in half of the subjects – runs as follows: (mouse, strain B6AKF1, females, oral dosing, site: any site (literature study), lesion: several types, types named in the paper, dosed 81 weeks, study length 81 weeks) 10.5 mg/kg/day; (mouse, strain B6AKF1, males, oral dosing, site: any site (literature study), lesion: several types, types named in the paper, dosed 81 weeks, study length 81 weeks) 8.45 mg/kg/day; (mouse, strain B6AKF1, males, oral dosing, site: liver, lesion: hepatoma, dosed 81 weeks, study length 81 weeks) 10.2 mg/kg/day; (mouse, strain B6AKF1, males, oral dosing, site: lung, lesion: adenoma, dosed 81 weeks, study length 81 weeks) 18.4 mg/kg/day; (mouse, strain B6C3F1, females, oral dosing, site: any site (literature study), lesion: several types, types named in the paper, dosed 81 weeks, study length 81 weeks) 3.46 mg/kg/day; (mouse, strain B6C3F1, females, oral dosing, site: liver, lesion: hepatoma, dosed 81 weeks, study length 81 weeks) 7.76 mg/kg/day. For the same compound, the TD50 (mouse, strain B6C3F1, males, oral dosing, site: any site (literature study), lesion: several types, types named in the paper, dosed 81 weeks, study length 81 weeks) amounted to 0.638 mg/kg/day; the TD50 (mouse, strain B6C3F1, males, oral dosing, site: liver, lesion: hepatoma, dosed 81 weeks, study length 81 weeks) was 1.49 mg/kg/day; the TD50 (mouse, strain B6C3F1, males, oral dosing, site: liver, lesion: several types, types named in the paper, dosed 81 weeks, study length 81 weeks) was found to be 1.28 mg/kg/day.
With `C1C2OC2C2C1C1CC2C2OC12` (centres undefined), the TD50 is 789 mg/kg/day (inactive) (mouse, strain CD-1 HaM/ICR, females, in feed, site: any site (literature study), lesion: several types, types named in the paper, dosed 64 weeks, study length 86 weeks); 1660 mg/kg/day (inactive) (mouse, strain CD-1 HaM/ICR, females, in feed, site: lung, lesion: several types, types named in the paper, dosed 64 weeks, study length 86 weeks); 149 mg/kg/day (inactive) (mouse, strain CD-1 HaM/ICR, males, in feed, site: any site (literature study), lesion: several types, types named in the paper, dosed 77 weeks, study length 86 weeks); 930 mg/kg/day (inactive) (mouse, strain CD-1 HaM/ICR, males, in feed, site: liver, lesion: several types, types named in the paper, dosed 77 weeks, study length 86 weeks); 373 mg/kg/day (inactive) (mouse, strain CD-1 HaM/ICR, males, in feed, site: lung, lesion: several types, types named in the paper, dosed 77 weeks, study length 86 weeks); 176 mg/kg/day (inactive) (rat, strain Charles River CD (Sprague-Dawley), males, in feed, site: any site (literature study), lesion: several types, types named in the paper, dosed 77 weeks, study length 107 weeks). In addition, the TD50 (rat, strain Charles River CD (Sprague-Dawley), males, in feed, site: liver, lesion: several types, types named in the paper, dosed 77 weeks, study length 107 weeks) is 3910 mg/kg/day (inactive). Further, the carcinogen call (mouse, strain CD-1 HaM/ICR, females, in feed, site: liver, lesion: several types, types named in the paper, dosed 64 weeks, study length 86 weeks) is “negative (inactive)”.
`O=c1c(O)c(-c2ccc(O)cc2)oc2cc(O)cc(O)c12`: the TD50 (rat, strain ACI, females, in feed, site: any site (literature study), lesion: several types, types named in the paper, dosed 77 weeks, study length 77 weeks) is 55.3 mg/kg/day (inactive) and the TD50 (rat, strain ACI, males, in feed, site: adrenal gland, lesion: cortical adenoma, dosed 77 weeks, study length 77 weeks) is 17.9 mg/kg/day (inactive).
